Like-named read-outs stand apart in the source and are kept apart here.

Assay [1] concerns patients suffering from hypotension. Kind of assay: 28-day survival of hypotensive patients given angiotensin II or placebo, by baseline Ang I:Ang II ratio. Format: in vivo, human. Here is the method:
The ratio of blood concentration of angiotensin I to blood concentration of angiotensin II in patients suffering from hypotension was determined and the patients were administered Angiotensin II or a placebo and their survival monitored for 28 days. In general, a low ratio of blood concentration of angiotensin I to blood concentration of angiotensin II (relative high ANG2 state) is protective across the patient population in multivariate analysis. When assessed by tertile, patients with a low ratio of blood concentration of angiotensin I to blood concentration of angiotensin II had better outcomes as assessed by a 28-day all-cause mortality as compared to high ratio of blood concentration of angiotensin I to blood concentration of angiotensin II (K-M survival curves, FIGS. 1 to 4). […] See also Table I and Table II.

The conditions of assay [2]: cited from earlier work.

Turning to “angiotensin II (DRVYIHPF; printed: Asp-Arg-Val-Tyr-Ile-His-Pro-Phe) [LJPC-501, text says patients were administered Angiotensin II or a placebo]”, the “Mortality at Day 28, Estimate (95% CI)” value is 41.6% (31.0%-54.0%) in assay [1] (Baseline Ang I:Ang II ratio <1.63, n = 70) and 50.0% (39.1%-62.0%) in assay [1] (Baseline Ang I:Ang II ratio ≥1.63, n = 72). In addition, in assay [1] (Elevated ratio patients given angiotensin II, compared with patients with a lower ratio), the “Survival of patients with elevated Ang I:Ang II ratio” value is recorded as “survival becomes comparable to patients who display a lower angiotensin I to angiotensin II ratio”. Further, the “Treatment effect on 28-day all-cause mortality compared to control” value in assay [1] (Patients with the highest Ang I:Ang II ratio (relative low ANG2 state)) is “large treatment effect compared to control”. Also, the “HR for mortality at Day 28, within treatment group” value in assay [1] (Within treatment group, baseline Ang I:Ang II ratio <1.63 vs ≥1.63) is on record as 0.80.

Turning to “Arg-Val-Tyr-Ile-His-Pro-Phe (RVYIHPF; printed: Arg-Val-Tyr-Ile-His-Pro-Phe) [Angiotensin III]”, the “Activity relative to angiotensin II” value in assay [2] (of the activity of angiotensin II) was “approximately 40%”.

For `CC[C@H](C)[C@H](NC(=O)[C@H](Cc1ccc(O)cc1)NC(=O)[C@@H](N)C(C)C)C(=O)N[C@@H](Cc1cnc[nH]1)C(=O)N1CCC[C@H]1C(=O)N[C@@H](Cc1ccccc1)C(=O)O` [Angiotensin IV, Val-Tyr-Ile-His-Pro-Phe], the “Activity relative to angiotensin II” value in assay [2] (in words) is “less activity than angiotensin II”.

The record behind these values is US11583568B2, “Methods for administering angiotensin II” (La Jolla Pharma, LLC, priority 2017, dated 2023).
